These compounds were tested on HT-29 cells (assay: Cellular RIP1 inhibitory activity: necroptosis of HT-29 cells induced by TNF-α/SMAC mimetic/zVAD-FMK, CellTiter-Glo viability). Conditions: Homo sapiens; HT-29 cells; TNF-α 10 ng/ml, SMAC mimetic 6 μM, zVAD-FMK 10 μM; 20 hours; geometric mean, 10 points, duplicates; read-out: EC50 (Cell activity; Necrosis or Necroptosis Inhibitory Activity).
Type: cell-based
Description: In Table 2, activity is provided as follows: +++=0.1 nM≤EC50<100 nM; ++=100 nM≤EC50K<1000 nM; +=1000 nM≤EC50K<10000 nM.
Compounds 1-67 (denoted as Compound Nos. 1 through 67 in Table 1) of the disclosure were tested for binding and cellular RIP1 inhibitory activity following the experimental procedures described below.
Cell line: HT-29 (ATCC® HTB-38™)
Culture medium: McCOY's 5A, Gibco, Cat No. 16600-082
DMSO: Sigma, Cat No. 67-68-5, 1 L
Assay plate: Corning #3903
Compound dilution plate: Corning #3357
Inducers: TNFα, GenScript, Cat No. Z01001-50,
SmacM, Cat. No., HY-15989, MedChemExpress (MCE)
Z_VAD FMK, TargetMol, T6013
Cell Titer-Glo® Luminescent Cell Viability Assay Kit: Promega, Cat No. G7573
1. HT-29 cells were checked every day to make sure that they were healthy and growing as expected. They were subjected to sub-culturing when they were approximately 80% confluent.
2. The culture medium, McCOY's 5A medium (Gibco, Cat No. 16600-082) with 10% fetal bovine serum or FBS (Gibco, Cat No. 10099-141C), was pre-warmed in a 37° C. water bath for at least 30 min.
3. When the cells had reached a desired level of confluency of 80% in a T75 flask, the medium was aspirated, and the cells were washed with warm phosphate buffered saline or PBS two times.
4. 2-3 ml fresh warm trypsin (Gibco, Cat No. 25200-056) solution was added to the washed cells. The flask with the cells was transferred to a 37° C. incubator.
5. After 5 minutes, the side of the flask was tapped, and the flask was examined under a microscope for detachment of the cells to the flask. If necessary, the cells were kept in the incubator for an additional 5-10 minutes, with occasional tapping, until lifting was complete.
6. The trypsin reaction was neutralized by transferring 6-9 ml cell culture medium to sterile 15 ml conical tubes, and by centrifuging the cell culture at 300×g for 7 minutes to pellet the cells (supernatant decanted).
7. The cells were resuspended in fresh cell culture medium and the cell counting was performed using a hemocytometer.
8. 100 μl of the resuspended cell culture medium containing ˜5,000 cells were transferred into each well of the sterile 96-well cell culture plate (Corning 3903) and cultured overnight at 37° C. with 5% CO2.
Compound Titration and Treatment
1. All test compounds were dissolved in DMSO (Dimethyl sulfoxide) to create a 20 mM stock.
2. 3 μl of each compound 20 mM stock was mixed with 27 μl DMSO, and the compound solution was further diluted at a titration ratio of 1:3 (20 μl compound solution+40 μl DMSO) till the 10 points end.
3. All culture medium was removed from assay plates filled with HT-29 cell cultures. The cells were then washed with 1 PBS, and resuspended in fresh, FBS-free McCOY's 5A medium containing a cocktail of TNF-α (10 ng/ml), a SMAC mimetic compound (6 μM) and Z-VAD-fluoromethylketone or zVAD-FMK (10 μM) to stimulate the HT-29 cells to increase RIP1 kinase levels and necroptosis.
4. 0.5 μL of the diluted compound solution was added to the corresponding 96-well assay plates.
5. The assay plates were incubated for 20 hours at 37° C. with 5% CO2.
1. The CellTiter-Glo® Luminescent Cell Viability Assay was employed to detect the ATP levels of viable HT-29 cells.
2. The CellTiter-Glo® buffer and the lyophilized substrate were equilibrated to room temperature prior to use.
3. The CellTiter-Glo® substrate was resuspended with CellTiter-Glo® buffer, then mixed by gently vortexing to obtain a homogeneous solution.
4. 20 μl the enzyme/substrate mixture was transferred by multi-channel pipetting into 96-well assay plates.
5. The assay plates were placed on an orbital shaker and the contents were shaken for 3 minutes to induce cell lysis.
6. The assay plates were incubated at room temperature for 10 minutes to stabilize the luminescent signal.
7. The luminescence signals were read and recorded with EnVision.
8. The geometric mean EC50 values were calculated from 10 points response dose with duplicates. […]

Row | SMILES | EC50 [nM]
1 | COC1CN(C(=O)c2nc(N3CCN(C(=O)N4N=CC[C@H]4c4cc(F)cc(C#N)c4)CC3)ncc2F)C1 [Compound 51, (S)-3-fluoro-5-(1-(4-(5-fluoro-4-(3-methoxyazetidine-1-carbonyl)pyrimidin-2-yl)piperazine-1-carbonyl)-4,5-dihydro-1H-pyrazol-5-yl)benzonitrile] | 0.1 to 100
2 | O=C(c1nc(N2CCN(C(=O)N3N=CC[C@H]3c3cc(F)cc(F)c3)CC2)ncc1F)N1CC=CC1 [Compound 61, (S)-(5-(3,5-difluorophenyl)-4,5-dihydro-1H-pyrazol-1-yl)(4-(4-(2,5-dihydro-1H-pyrrole-1-carbonyl)-5-fluoropyrimidin-2-yl)piperazin-1-yl)methanone] | 0.1 to 100
3 | NC(=O)c1ccnc(N2CCN(C(=O)N3N=CC[C@H]3c3cc(F)cc(F)c3)CC2)n1 [Compound 38, 2-(4-(5-(3,5-difluorophenyl)-4,5-dihydro-1H-pyrazole-1-carbonyl)piperazin-1-yl)pyrimidine-4-carboxamide] | 0.1 to 100
4 | CC1CN(C(=O)c2nc(N3CCN(C(=O)N4N=CC[C@H]4c4cc(F)cc(F)c4)CC3)ncc2F)C1 [Compound 56, (S)-(5-(3,5-difluorophenyl)-4,5-dihydro-1H-pyrazol-1-yl)(4-(5-fluoro-4-(3-methylazetidine-1-carbonyl)pyrimidin-2-yl)piperazin-1-yl)methanone] | 0.1 to 100
5 | CN(O)C(=O)c1nc(N2CCN(C(=O)N3N=CC[C@H]3c3cc(F)cc(F)c3)CC2)ncc1F [Compound 20, (S)-2-(4-(5-(3,5-difluorophenyl)-4,5-dihydro-1H-pyrazole-1-carbonyl)piperazin-1-yl)-5-fluoro-N-hydroxy-N-methylpyrimidine-4-carboxamide] | 0.1 to 100
6 | COc1cnc(N2CCN(C(=O)N3N=CC[C@H]3c3cc(F)cc(F)c3)CC2)nc1C(N)=O [Compound 62, (S)-2-(4-(5-(3,5-difluorophenyl)-4,5-dihydro-1H-pyrazole-1-carbonyl)piperazin-1-yl)-5-methoxypyrimidine-4-carboxamide] | 100 to 1000
7 | O=C(c1nc(N2CCN(C(=O)N3N=CC[C@H]3c3cc(F)cc(F)c3)CC2)ncc1F)N1CC2(CCC2)C1 [Compound 29, (S)-(5-(3,5-difluorophenyl)-4,5-dihydro-1H-pyrazol-1-yl)(4-(5-fluoro-4-(2-azaspiro[3.3]heptane-2-carbonyl)pyrimidin-2-yl)piperazin-1-yl)methanone] | 0.1 to 100
8 | NC(=O)c1cc(N2CCN(C(=O)N3N=CC[C@H]3c3cc(F)cc(F)c3)CC2)ncn1 [Compound 40, (S)-6-(4-(5-(3,5-difluorophenyl)-4,5-dihydro-1H-pyrazole-1-carbonyl)piperazin-1-yl)pyrimidine-4-carboxamide] | 0.1 to 100
9 | CN1CCN(C(=O)c2nc(N3CCN(C(=O)N4N=CC[C@H]4c4cc(F)cc(F)c4)CC3)ncc2F)CC1 [Compound 19, (5-(3,5-difluorophenyl)-4,5-dihydro-1H-pyrazol-1-yl)(4-(5-fluoro-4-(4-methylpiperazine-1-carbonyl)pyrimidin-2-yl)piperazin-1-yl)methanone] | 0.1 to 100
10 | O=C(c1nc(N2CCN(C(=O)N3N=CC[C@H]3c3cc(F)cc(F)c3)CC2)ncc1F)N1CC(O)C1 [Compound 13, (5-(3,5-difluorophenyl)-4,5-dihydro-1H-pyrazol-1-yl)(4-(5-fluoro-4-(3-hydroxyazetidine-1-carbonyl)pyrimidin-2-yl)piperazin-1-yl)methanone] | 0.1 to 100
11 | O=C(O)c1nc(N2CCN(C(=O)N3N=CC[C@H]3c3cc(F)cc(F)c3)CC2)ncc1F [Compound 1, (S)-2-(4-(5-(3,5-difluorophenyl)-4,5-dihydro-1H-pyrazole-1-carbonyl)piperazin-1-yl)-5-fluoropyrimidine-4-carboxylic acid] | 1000 to 10000
12 | N#CC1CN(C(=O)c2nc(N3CCN(C(=O)N4N=CC[C@H]4c4cc(F)cc(F)c4)CC3)ncc2F)C1 [Compound 25, (S)-1-(2-(4-(5-(3,5-difluorophenyl)-4,5-dihydro-1H-pyrazole-1-carbonyl)piperazin-1-yl)-5-fluoropyrimidine-4-carbonyl)azetidine-3-carbonitrile] | 0.1 to 100
13 | O=C(c1nc(N2CCN(C(=O)N3N=CC[C@H]3c3cc(F)cc(F)c3)CC2)ncc1F)N1CCOCC1 [Compound 18, (5-(3,5-difluorophenyl)-4,5-dihydro-1H-pyrazol-1-yl)(4-(5-fluoro-4-(morpholine-4-carbonyl)pyrimidin-2-yl)piperazin-1-yl)methanone] | 0.1 to 100
14 | O=C(NCCN1CCOCC1)c1ccnc(N2CCN(C(=O)N3N=CC[C@H]3c3cc(F)cc(F)c3)CC2)n1 [Compound 45, (S)-2-(4-(5-(3,5-difluorophenyl)-4,5-dihydro-1H-pyrazole-1-carbonyl)piperazin-1-yl)-N-(2-morpholinoethyl)pyrimidine-4-carboxamide] | 100 to 1000
15 | COC(=O)c1ccnc(N2CCN(C(=O)N3N=CC[C@H]3c3cc(F)cc(F)c3)CC2)n1 [Compound 49, methyl (S)-2-(4-(5-(3,5-difluorophenyl)-4,5-dihydro-1H-pyrazole-1-carbonyl)piperazin-1-yl)pyrimidine-4-carboxylate] | 0.1 to 100
16 | CN(C)[C@H]1CCN(C(=O)c2nc(N3CCN(C(=O)N4N=CC[C@H]4c4cc(F)cc(F)c4)CC3)ncc2F)C1 [Compound 31, ((S)-5-(3,5-difluorophenyl)-4,5-dihydro-1H-pyrazol-1-yl)(4-(4-((S)-3-(dimethylamino)pyrrolidine-1-carbonyl)-5-fluoropyrimidin-2-yl)piperazin-1-yl)methanone] | 0.1 to 100
17 | CC(C)OC1CN(C(=O)c2nc(N3CCN(C(=O)N4N=CC[C@H]4c4cc(F)cc(F)c4)CC3)ncc2F)C1 [Compound 24, (S)-(5-(3,5-difluorophenyl)-4,5-dihydro-1H-pyrazol-1-yl)(4-(5-fluoro-4-(3-isopropoxyazetidine-1-carbonyl)pyrimidin-2-yl)piperazin-1-yl)methanone] | 0.1 to 100
18 | N#CCC1CN(C(=O)c2nc(N3CCN(C(=O)N4N=CC[C@H]4c4cc(F)cc(F)c4)CC3)ncc2F)C1 [Compound 58, (S)-2-(1-(2-(4-(5-(3,5-difluorophenyl)-4,5-dihydro-1H-pyrazole-1-carbonyl)piperazin-1-yl)-5-fluoropyrimidine-4-carbonyl)azetidin-3-yl)acetonitrile] | 0.1 to 100
19 | NC(=O)c1cc(N2CCN(C(=O)N3N=CC[C@H]3c3cc(F)cc(F)c3)CC2)c(F)cn1 [Compound 67, (S)-4-(4-(5-(3,5-difluorophenyl)-4,5-dihydro-1H-pyrazole-1-carbonyl)piperazin-1-yl)-5-fluoropicolinamide] | 100 to 1000
20 | O=C(NO)c1nc(N2CCN(C(=O)N3N=CC[C@H]3c3cc(F)cc(F)c3)CC2)ncc1F [Compound 2, (S)-2-(4-(5-(3,5-difluorophenyl)-4,5-dihydro-1H-pyrazole-1-carbonyl)piperazin-1-yl)-5-fluoro-N-hydroxypyrimidine-4-carboxamide] | 0.1 to 100
21 | N#Cc1cc(F)cc([C@@H]2CC=NN2C(=O)N2CCN(c3nccc(C(N)=O)n3)CC2)c1 [Compound 42, (S)-2-(4-(5-(3-cyano-5-fluorophenyl)-4,5-dihydro-1H-pyrazole-1-carbonyl)piperazin-1-yl)pyrimidine-4-carboxamide] | 0.1 to 100
